{"source": "ChEMBL document CHEMBL1137326", "about": "“Cyclic MrIA: a stable and potent cyclic conotoxin with a novel topological fold that targets the norepinephrine transporter” (J Med Chem, 2006)", "key": {"trypsin": {"test_system": "trypsin", "assay": "Stability against cleavage by trypsin after 24 hrs by enzymatic digestion assay", "format": "ADME", "settings": "human, read-out: Activity"}, "[1]": {"target": "Sodium-dependent noradrenaline transporter (Homo sapiens, UniProt P23975)", "sequence (P23975 whole entry)": "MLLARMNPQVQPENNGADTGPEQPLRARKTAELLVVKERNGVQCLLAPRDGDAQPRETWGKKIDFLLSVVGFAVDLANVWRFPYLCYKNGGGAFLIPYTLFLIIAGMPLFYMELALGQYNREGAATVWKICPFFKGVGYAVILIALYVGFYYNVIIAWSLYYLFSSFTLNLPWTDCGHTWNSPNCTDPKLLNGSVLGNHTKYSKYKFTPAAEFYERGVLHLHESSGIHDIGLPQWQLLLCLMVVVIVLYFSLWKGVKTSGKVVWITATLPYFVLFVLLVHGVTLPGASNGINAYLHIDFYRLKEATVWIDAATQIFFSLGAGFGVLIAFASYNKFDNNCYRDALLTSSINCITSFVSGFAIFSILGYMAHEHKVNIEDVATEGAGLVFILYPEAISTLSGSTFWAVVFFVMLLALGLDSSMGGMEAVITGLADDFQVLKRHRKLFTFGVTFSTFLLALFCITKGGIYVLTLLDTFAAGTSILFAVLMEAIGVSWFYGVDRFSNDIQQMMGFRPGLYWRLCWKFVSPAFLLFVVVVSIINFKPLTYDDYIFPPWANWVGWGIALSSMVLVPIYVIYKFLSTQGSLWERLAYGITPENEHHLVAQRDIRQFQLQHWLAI", "assay": "Displacement of [3H]nisoxetine from human NET in COS7 cells", "format": "cell-based, COS-7"}}}
{"smiles": "CC(C)C[C@@H]1NC(=O)[C@H](CCCCN)NC(=O)[C@H](Cc2ccc(O)cc2)NC(=O)CNC(=O)C2CSSCC(NC1=O)C(=O)N[C@@H](Cc1c[nH]cn1)C(=O)N1C[C@H](O)C[C@H]1C(=O)N[C@H](C(=O)O)CSSC[C@H](NC(=O)[C@@H](NC(=O)CNC(=O)[C@@H](N)CC(N)=O)C(C)C)C(=O)N2", "note": "(some centres not stated)", "values": [{"measurement": "remaining at 24 h", "setting": "trypsin", "value": "< 55", "unit": "%"}, {"measurement": "EC50", "setting": "[1]", "value": 1820, "unit": "nM"}]}
